This experiment deals with T1, TYK2 JH2 (Homo sapiens, UniProt P29597).
T1 construct: purchased DiscoverX (KINOMEscan KdELECT service); host or cells: E. coli BL21-derived (T7 phage display) or HEK-293
In words: TYK2 JH2 binding assay (KINOMEscan KdELECT competitive binding). The conditions noted are these: TYK2 JH2 domain. On the procedure:
Assay A: TYK2 JH2 Binding Assay
Competitive binding studies using TKY2 JH2-domain fragments were conducted by DiscoverX using the KINOMEscan (KdELECT) platform. Kinase-tagged T7 phage strains were prepared in an E. coli host derived from the BL21 strain. E. coli were grown to log-phase and infected with […] and incubated with shaking at 32° C. until lysis. The lysates were centrifuged and filtered to remove cell debris. The remaining kinases were produced in HEK-293 cells and subsequently tagged with DNA for qPCR detection. Streptavidin-coated magnetic beads were treated with biotinylated small molecule ligands for 30 minutes at room temperature to generate affinity resins for kinase assays. The liganded beads were blocked with excess biotin and washed with blocking buffer (SeaBlock (Pierce), 1% BSA, 0.05% Tween 20, 1 mM DTT) to remove unbound ligand and to reduce non-specific binding. Binding reactions were assembled by combining kinases, liganded affinity beads, and test compounds in 1× binding buffer (20% SeaBlock, 0.17×PBS, 0.05% Tween 20, 6 mM DTT). Test compounds were prepared as 111× stocks in 100% DMSO. Kds were determined using an 11-point 3-fold compound dilution series with three DMSO control points. All compounds for Kd measurements are distributed by acoustic transfer (non-contact dispensing) in 100% DMSO. The compounds were then diluted directly into the assays such that the final concentration of DMSO was 0.9%. All reactions performed in polypropylene 384-well plate. Each was a final volume of 0.02 ml. The assay plates were incubated at room temperature with shaking for 1 hour and the affinity beads were washed with wash buffer (1×PBS, 0.05% Tween 20). The beads were then re-suspended in elution buffer (1×PBS, 0.05% Tween 20, 0.5 μM non-biotinylated affinity ligand) and incubated at room temperature with shaking for 30 minutes. The kinase concentration in the eluates was measured by qPCR.

[1] abbreviates: DiscoverX KINOMEscan KdELECT (Assay A), read-out: Biochemical TYK2_DiscoverX_JH2_BND_Kd.
Setting [2] is: KINOMEscan KdELECT (Assay A), read-out: Biochemical TYK2_JH2_Kd.
Where [3] appears, read: KINOMEscan KdELECT (Assay A), read-out: Biochemical TYK2_DiscoverX_JH2_BND_Kd.

Read-outs that look alike come from different tables or passages of the source.

T1 sequence (P29597 589-875 limits assumed): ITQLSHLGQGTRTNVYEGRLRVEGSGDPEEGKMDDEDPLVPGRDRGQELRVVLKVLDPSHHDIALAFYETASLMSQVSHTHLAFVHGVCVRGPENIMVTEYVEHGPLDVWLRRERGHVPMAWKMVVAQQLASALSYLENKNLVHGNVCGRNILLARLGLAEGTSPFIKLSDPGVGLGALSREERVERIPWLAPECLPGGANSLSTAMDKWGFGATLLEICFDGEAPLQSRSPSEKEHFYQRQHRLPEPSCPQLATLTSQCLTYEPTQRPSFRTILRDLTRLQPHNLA

Turning to `CCOC(=O)[C@H]1C[C@@H]1C(=O)Nc1cc2c(-c3nc4cc(OC)ccc4o3)cnc(NC)c2cn1` (racemic) [Example 392, ethyl 2-((5-(5-methoxybenzo[d]oxazol-2-y1)-8-(methylamino)-2,7-naphthyridin-3-yl)carbamoyl)cyclopropane-1-carboxylate], the Kd under setting [1] is not above 100 nM.
As for `CNc1ncc(N2CCCS2(=O)=O)c2cc(NC(=O)C3CC3)ncc12` [Example 58, N-(5-(1,1-dioxidoisothiazolidin-2-yl)-8-(methylamino)-2,7-naphthyridin-3-yl)cyclopropanecarboxamide], the Kd under setting [2] lay in the range of 100 to 1000 nM.
Consider `CNc1ncc(N2Cc3cnccc3C2=O)c2cc(NC(=O)C3CC3)ncc12` [Example 59, N-(8-(methylamino)-5-(1-oxo-1,3-dihydro-2H-pyrrolo[3,4-c]pyridin-2-yl)-2,7-naphthyridin-3-yl)cyclopropanecarboxamide], for which the Kd under setting [2] lay in the range of 1000 to 10000 nM.
Turning to `CNc1ncc(-n2ccc(=O)cc2)c2cc(NC(=O)C3CC3)ncc12` [Example 60, N-(8-(methylamino)-5-(4-oxopyridin-1(4H)-yl)-2,7-naphthyridin-3-yl)cyclopropanecarboxamide], the Kd under setting [2] is 100 to 1000 nM.
On to `CNc1ncc(-n2ccccc2=O)c2cc(NC(=O)C3CC3)ncc12` [Example 61, N-(8-(methylamino)-5-(2-oxopyridin-1(2H)-yl)-2,7-naphthyridin-3-yl)cyclopropanecarboxamide], for which the Kd under setting [2] was 1000 to 10000 nM.
On to `CNc1ncc(Oc2ccccn2)c2cc(NC(=O)C3CC3)ncc12` [Example 62, N-(8-(methylamino)-5-(pyridin-2-yloxy)-2,7-naphthyridin-3-yl)cyclopropanecarboxamide], for which the Kd under setting [2] was not above 100 nM.
The same measure, in the same setting: next, `CNc1ncc(-c2ccccc2)c2cc(NC3COC3)ncc12` [Example 97, N^1-methyl-N^6-(oxetan-3-yl)-4-phenyl-2,7-naphthyridine-1,6-diamine]: 100 to 1000 nM.
Regarding `CNc1ncc(-c2ccccc2)c2cc(NCc3ccccc3)ncc12` [Example 99, N^6-benzyl-N^1-methyl-4-phenyl-2,7-naphthyridine-1,6-diamine], under setting [2], the Kd was in the range of 1000 to 10000 nM.
The same measure, in the same setting: next, `CNc1ncc(-c2ccccc2)c2cc(NCc3ccccn3)ncc12` [Example 100, N^1-methyl-4-phenyl-N^6-(pyridin-2-ylmethyl)-2,7-naphthyridine-1,6-diamine]: 1000 to 10000 nM; `CNc1ncc(-c2ccccc2)c2cc(Nc3ccccc3)ncc12` [Example 102]: 100 to 1000 nM; `CNc1ncc(-c2cn(C)c3ncccc23)c2cc(NC(=O)C3CC3)ncc12` [Example 107, N-(5-(1-methyl-1H-pyrrolo[2,3-b]pyridin-3-yl)-8-(methylamino)-2,7-naphthyridin-3-yl)cyclopropanecarboxamide]: not above 100 nM.
`CNc1ncc(C(=O)N2CCC(Oc3ccccc3)CC2)c2cc(NC(=O)C3CC3)ncc12` [Example 121, N-(8-(methylamino)-5-(4-phenoxypiperidine-1-carbonyl)-2,7-naphthyridin-3-yl)cyclopropanecarboxamide]: the Kd under setting [2] lay in the range of 1000 to 10000 nM.
Turning to `CNc1ncc(C(=O)N2CCCCC2)c2cc(NC(=O)C3CC3)ncc12` [Example 122, N-(8-(methylamino)-5-(piperidine-1-carbonyl)-2,7-naphthyridin-3-yl)cyclopropanecarboxamide], the Kd under setting [2] lay in the range of 100 to 1000 nM.
Same read-out and setting: next, `CNc1ncc(C(N)=O)c2cc(NC(=O)C3CC3)ncc12` [Example 123, 6-(cyclopropanecarboxamido)-1-(methylamino)-2,7-naphthyridine-4-carboxamide]: not above 100 nM.
On the same count and under the same terms, next, `CNc1ncc(-c2cc(-c3ccccc3)ns2)c2cc(NC(=O)C3CC3)ncc12` [Example 146, N-(8-(methylamino)-5-(3-phenylisothiazol-5-yl)-2,7-naphthyridin-3-yl)cyclopropanecarboxamide]: not above 100 nM.
Turning to `CSc1ncc(-c2ccccc2)c2cc(NC(=O)C3CC3)ncc12` [Example 159, N-(8-(methylthio)-5-phenyl-2,7-naphthyridin-3-yl)cyclopropanecarboxamide], the Kd under setting [2] was 100 to 1000 nM.
`CNc1ncc(-c2nc3cc(OC)ccc3o2)c2cc(NC(=O)C3CC3)ncc12` [Example 182, N-(5-(5-methoxybenzo[d]oxazol-2-yl)-8-(methylamino)-2,7-naphthyridin-3-yl)cyclopropanecarboxamide]: under setting [2], the Kd is not above 100 nM.
As to `CNc1ncc(-c2nc3cccc(F)c3o2)c2cc(NC(=O)C3CC3)ncc12` [Example 185, N-(5-(7-fluorobenzo[d]oxazol-2-yl)-8-(methylamino)-2,7-naphthyridin-3-yl)cyclopropanecarboxamide], the Kd under setting [2] was not above 100 nM.
On to `CNc1ncc(-c2nc3cc(N4CC(F)(F)C4)ccn3n2)c2cc(NC(=O)C3CC3)ncc12` [Example 189, N-(5-(7-(3,3-difluoroazetidin-1-yl)-[1,2,4]triazolo[1,5-a]pyridin-2-yl)-8-(methylamino)-2,7-naphthyridin-3-yl)cyclopropanecarboxamide], for which the Kd under setting [2] was not above 100 nM.
As to `CNc1ncc(-c2nc3cc(N4CCCC(N5CC(F)(F)C5)C4)ccn3n2)c2cc(NC(=O)C3CC3)ncc12` (stereo not drawn) [Example 190, N-(5-(7-(3-(3,3-difluoroazetidin-1-yl)piperidin-1-yl)-[1,2,4]triazolo[1,5-a]pyridin-2-yl)-8-(methylamino)-2,7-naphthyridin-3-yl)cyclopropanecarboxamide], the Kd under setting [2] is not above 100 nM.
Still for that read-out and setting: the figure for `CNc1ncc(-c2nc3ccc(F)cn3n2)c2cc(NC(=O)C3CC3)ncc12` [Example 191, N-(5-(6-fluoro-[1,2,4]triazolo[1,5-a]pyridin-2-yl)-8-(methylamino)-2,7-naphthyridin-3-yl)cyclopropanecarboxamide] is not above 100 nM; for `CNc1ncc(-c2nc3cccc(F)n3n2)c2cc(NC(=O)C3CC3)ncc12` [Example 192, N-(5-(5-fluoro-[1,2,4]triazolo[1,5-a]pyridin-2-yl)-8-(methylamino)-2,7-naphthyridin-3-yl)cyclopropanecarboxamide] it is not above 100 nM; for `CNc1ncc(-c2nc3c(F)cccn3n2)c2cc(NC(=O)C3CC3)ncc12` [Example 193, N-(5-(8-fluoro-[1,2,4]triazolo[1,5-a]pyridin-2-yl)-8-(methylamino)-2,7-naphthyridin-3-yl)cyclopropanecarboxamide] it is not above 100 nM.
Take `CNc1ncc(-c2nc3cc(F)ccn3n2)c2cc(NC(=O)C3CC3)ncc12` [Example 194, N-(5-(7-fluoro-[1,2,4]triazolo[1,5-a]pyridin-2-yl)-8-(methylamino)-2,7-naphthyridin-3-yl)cyclopropanecarboxamide]: under setting [2], the Kd is not above 100 nM.
In the case of `CNc1ncc(-c2nc3cc(OCc4ccccc4)ccc3o2)c2cc(Nc3ccc(OCc4ccccc4)cn3)ncc12` [Example 430, 4-(5-(benzyloxy)benzo[d]oxazol-2-yl)-N^6-(5-(benzyloxy)pyridin-2-yl)-N^1-methyl-2,7-naphthyridine-1,6-diamine], under setting [1], the Kd fell in the range of 100 to 1000 nM.
`CNc1ncc(-c2noc(C)n2)c2cc(NC(=O)C3CC3)ncc12` [Example 837, N-(5-(5-methyl-1,2,4-oxadiazol-3-yl)-8-(methylamino)-2,7-naphthyridin-3-yl)cyclopropanecarboxamide]: the Kd under setting [3] was not above 100 nM.
Still for that read-out and setting: next, `CNc1ncc(CCc2cccc(S(C)(=O)=O)c2)c2cc(NC(=O)C3CC3)ncc12` [Example 838, N-(8-(methylamino)-5-(3-(methylsulfonyl)phenethyl)-2,7-naphthyridin-3-yl)cyclopropanecarboxamide]: not above 100 nM; `CNc1ncc(C(=O)N2CCCC2)c2cc(NC(=O)C3CC3)ncc12` [Example 840, N-(8-(methylamino)-5-(pyrrolidine-1-carbonyl)-2,7-naphthyridin-3-yl)cyclopropanecarboxamide]: 100 to 1000 nM.
Turning to `CNc1ncc(-c2nnc3n2CCC3)c2cc(NC(=O)C3CC3)ncc12` [Example 854, N-(5-(6,7-dihydro-5H-pyrrolo[2,1-c][1,2,4]triazol-3-yl)-8-(methylamino)-2,7-naphthyridin-3-yl)cyclopropanecarboxamide], the Kd under setting [3] lay within 100 to 1000 nM.
Regarding `CNc1ncc(-c2cccn3nc(Br)nc23)c2cc(NC(=O)C3CC3)ncc12` [Example 856, N-(5-(2-bromo-[1,2,4]triazolo[1,5-a]pyridin-8-yl)-8-(methylamino)-2,7-naphthyridin-3-yl)cyclopropanecarboxamide], the Kd under setting [3] was in the range of 100 to 1000 nM.

Source of the values: US20240025906A1 (NEURON23, INC., priority 2022, published 2024).
